Test results taken from ChEMBL document CHEMBL1201862, “PubChem BioAssay data set” (2004).
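Method: 48-hour compound exposure of cells in 96-well plates, five concentrations, linear interpolation of endpoints. Abbreviation: GI50, concentration required for 50% inhibition of growth.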 Calls of active or inactive are those of the source. Cut-off read from the data, not from the text of the source: active = GI50 up to about 1.1 µM and inactive = higher.

Columns and labels:
Assay in all cases: NCI-60 cell line screen, 48 h
[1] = test system: A498
[2] = test system: COLO 205
[3] = test system: RXF 393
[4] = test system: MDA-MB-231
[5] = test system: NCI-H226
[6] = test system: HOP-62
[7] = test system: UO-31
[8] = test system: RPMI-8226
[9] = test system: OVCAR-3
[10] = test system: T47D
[11] = test system: SF-295
[12] = test system: BT-549
[13] = test system: HOP-92
[14] = test system: SK-MEL-2
[15] = test system: SNB-19
[16] = test system: NCI-H522
[17] = test system: EKVX
[18] = test system: SNB-75
[19] = test system: M14
[20] = test system: SK-OV-3
[21] = test system: SF-268
[22] = test system: NCI-H23
[23] = test system: NCI/ADR-RES
[24] = test system: NCI-H460
[25] = test system: SK-MEL-5
[26] = test system: HT-29
[27] = test system: HCT-116
[28] = test system: PC-3
[29] = test system: A549
[30] = test system: K562
[31] = test system: ACHN
[32] = test system: KM12
[33] = test system: UACC-62
[34] = test system: TK-10
[35] = test system: CAKI-1
[36] = test system: HCT-15
[37] = test system: U-251
[38] = test system: Hs-578T
[39] = test system: 786-0
[40] = test system: UACC-257
[41] = test system: Malme-3M
[42] = test system: LOX IMVI
[43] = test system: CCRF-CEM
[44] = test system: HCC 2998
[45] = test system: SW-620
[46] = test system: MDA-MB-435
[47] = test system: SN12C
[48] = test system: IGROV-1
[49] = test system: OVCAR-4
[50] = test system: OVCAR-5
[51] = test system: DU-145
[52] = test system: MDA-N
[53] = test system: SK-MEL-28
[54] = test system: MOLT-4
[55] = test system: OVCAR-8
[56] = test system: MCF7

CC(Cc1ccccc1)Nc1ncnc2c1ncn2C1OC(CO)CC1O (stereo unspecified)
GI50 [1]: > 100 µM (inactive) | GI50 [2]: > 100 µM (inactive) | GI50 [3]: > 100 µM (inactive) | GI50 [4]: > 100 µM (inactive) | GI50 [5]: > 100 µM (inactive) | GI50 [6]: > 100 µM (inactive) | GI50 [7]: > 100 µM (inactive) | GI50 [8]: > 100 µM (inactive) | GI50 [9]: > 100 µM (inactive) | GI50 [10]: > 100 µM (inactive) | GI50 [11]: 1.93 µM (inactive) | GI50 [12]: > 100 µM (inactive) | GI50 [13]: > 100 µM (inactive) | GI50 [14]: > 100 µM (inactive) | GI50 [15]: > 100 µM (inactive) | GI50 [16]: > 100 µM (inactive) | GI50 [17]: > 100 µM (inactive) | GI50 [18]: > 100 µM (inactive) | GI50 [19]: > 100 µM (inactive) | GI50 [20]: 3.71 µM (inactive) | GI50 [21]: > 100 µM (inactive) | GI50 [22]: > 100 µM (inactive) | GI50 [23]: > 100 µM (inactive) | GI50 [24]: > 100 µM (inactive) | GI50 [25]: > 100 µM (inactive) | GI50 [26]: > 100 µM (inactive) | GI50 [27]: > 100 µM (inactive) | GI50 [28]: > 100 µM (inactive) | GI50 [29]: > 100 µM (inactive) | GI50 [30]: > 100 µM (inactive) | GI50 [31]: > 100 µM (inactive) | GI50 [32]: > 100 µM (inactive) | GI50 [33]: > 100 µM (inactive) | GI50 [34]: > 100 µM (inactive) | GI50 [35]: > 100 µM (inactive) | GI50 [36]: > 100 µM | GI50 [37]: > 100 µM (inactive) | GI50 [38]: 58.7 µM (inactive) | GI50 [39]: > 100 µM (inactive) | GI50 [40]: > 100 µM (inactive) | GI50 [41]: > 100 µM (inactive) | GI50 [42]: > 100 µM (inactive) | GI50 [43]: > 100 µM (inactive) | GI50 [44]: > 100 µM (inactive) | GI50 [45]: > 100 µM (inactive) | GI50 [46]: > 100 µM (inactive) | GI50 [47]: > 100 µM (inactive) | GI50 [48]: > 100 µM (inactive) | GI50 [49]: > 100 µM (inactive) | GI50 [50]: > 100 µM (inactive) | GI50 [51]: > 100 µM (inactive) | GI50 [52]: > 100 µM (inactive) | GI50 [53]: > 100 µM (inactive) | GI50 [54]: > 100 µM (inactive) | GI50 [55]: > 100 µM (inactive) | GI50 [56]: 0.611 µM (active)
